Reference: the supplement of paper PMC10307832

Tests used:
Experiment in all cases: relative viability (nuclei count vs DMSO), 5 days (fraction); higher = more cells survive
[1] = compound: CN1CCN(c2ccc3nc(-c4c(N)c5c(F)cccc5[nH]c4=O)[nH]c3c2)CC1 [Dovitinib] + CS(=O)(=O)N1CCN(Cc2cc3nc(-c4cccc5[nH]ncc45)nc(N4CCOCC4)c3s2)CC1 [Pictilisib] (partner 1 µM)
In short: (§1)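 Values are medians from duplicate plates. Each reflects relative viability, defined as the nuclei count of treated wells over that of vehicle wells. Lung cancer cell lines in 1536-well plates were pin-tool dosed one day after seeding with one drug alone or with a fixed anchor-drug dose plus five library-drug doses (not always all listed) in √10 steps, then fixed, stained and imaged at 4× after 5 days.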

[2] = compound: CN1CCN(c2ccc3nc(-c4c(N)c5c(F)cccc5[nH]c4=O)[nH]c3c2)CC1 [Dovitinib] + CC1(C)CCC(c2ccc(Cl)cc2)=C(CN2CCN(c3ccc(C(=O)NS(=O)(=O)c4ccc(N[C@H](CCN5CCOCC5)CSc5ccccc5)c(S(=O)(=O)C(F)(F)F)c4)cc3)CC2)C1 [Navitoclax] (partner 0.5 µM)
In short: as §1

[3] = compound: CN1CCN(c2ccc3nc(-c4c(N)c5c(F)cccc5[nH]c4=O)[nH]c3c2)CC1 [Dovitinib] + CC(C)C[C@H](NC(=O)[C@H](Cc1ccccc1)NC(=O)c1cnccn1)B(O)O [Bortezomib] (partner 0.002 µM)
In short: as §1

[4] = compound: CN1CCN(c2ccc3nc(-c4c(N)c5c(F)cccc5[nH]c4=O)[nH]c3c2)CC1 [Dovitinib] + C[C@]1(O)C[C@@H](c2nc(-c3ccc4ccc(-c5ccccc5)nc4c3)c3c(N)nccn32)C1 [Linsitinib] (partner 1 µM)
In short: as §1

[5] = compound: CN1CCN(c2ccc3nc(-c4c(N)c5c(F)cccc5[nH]c4=O)[nH]c3c2)CC1 [Dovitinib] + O=C(c1cc(Cc2n[nH]c(=O)c3ccccc23)ccc1F)N1CCN(C(=O)C2CC2)CC1 [Olaparib] (partner 8 µM)
In short: as §1

[6] = compound: CN1CCN(c2ccc3nc(-c4c(N)c5c(F)cccc5[nH]c4=O)[nH]c3c2)CC1 [Dovitinib] + C[C@@H](Oc1cc(-c2cnn(C3CCNCC3)c2)cnc1N)c1c(Cl)ccc(F)c1Cl [Crizotinib] (partner 1 µM)
In short: as §1

[7] = compound: CN1CCN(c2ccc3nc(-c4c(N)c5c(F)cccc5[nH]c4=O)[nH]c3c2)CC1 [Dovitinib] + COc1cc2c(Oc3ccc(NC(=O)C4(C(=O)Nc5ccc(F)cc5)CC4)cc3F)ccnc2cc1OCCCN1CCOCC1 [Foretinib] (partner 0.25 µM)
In short: as §1

[8] = compound: CN1CCN(c2ccc3nc(-c4c(N)c5c(F)cccc5[nH]c4=O)[nH]c3c2)CC1 [Dovitinib] + Cc1nc(NC(=O)N2CCC[C@H]2C(N)=O)sc1-c1ccnc(C(C)(C)C(F)(F)F)c1 [Alpelisib] (partner 2 µM)
In short: as §1

[9] = compound: CN1CCN(c2ccc3nc(-c4c(N)c5c(F)cccc5[nH]c4=O)[nH]c3c2)CC1 [Dovitinib] + CS(=O)(=O)CCNCc1ccc(-c2ccc3ncnc(Nc4ccc(OCc5cccc(F)c5)c(Cl)c4)c3c2)o1 [Lapatinib] (partner 2 µM)
In short: as §1

[10] = compound: CN1CCN(c2ccc3nc(-c4c(N)c5c(F)cccc5[nH]c4=O)[nH]c3c2)CC1 [Dovitinib]
In short: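 Acceptance criteria were a control CV below 25% and at least one doubling per plate. Lung cancer cell lines in 1536-well plates got five library-drug doses (not always all listed) √10 apart by pinning and were left 5 days with no medium change. Viability divides treated-well nuclei by vehicle-well nuclei and is the median across plates. Nuclei were counted by MetaXpress from 4× Hoechst images.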

[11] = compound: CN1CCN(c2ccc3nc(-c4c(N)c5c(F)cccc5[nH]c4=O)[nH]c3c2)CC1 [Dovitinib] + N=C(N)NC(=N)NCCc1ccccc1 [Phenformin] (partner 250 µM)
In short: as §1

[12] = compound: CN1CCN(c2ccc3nc(-c4c(N)c5c(F)cccc5[nH]c4=O)[nH]c3c2)CC1 [Dovitinib] + Cc1nc(Nc2ncc(C(=O)Nc3c(C)cccc3Cl)s2)cc(N2CCN(CCO)CC2)n1 [Dasatinib] (partner 0.075 µM)
In short: as §1

[13] = compound: CN1CCN(c2ccc3nc(-c4c(N)c5c(F)cccc5[nH]c4=O)[nH]c3c2)CC1 [Dovitinib] + Cc1cc(Nc2cc(N3CCN(C)CC3)nc(Sc3ccc(NC(=O)C4CC4)cc3)n2)n[nH]1 [Tozasertib] (partner 0.1 µM)
In short: as §1

[14] = compound: CN1CCN(c2ccc3nc(-c4c(N)c5c(F)cccc5[nH]c4=O)[nH]c3c2)CC1 [Dovitinib] + COc1cccc2cc(-c3nc([C@H]4CC[C@H](C(=O)O)CC4)n4ncnc(N)c34)[nH]c12 [OSI-027] (partner 0.5 µM)
In short: as §1

[15] = compound: CN1CCN(c2ccc3nc(-c4c(N)c5c(F)cccc5[nH]c4=O)[nH]c3c2)CC1 [Dovitinib] + CCNC(=O)c1noc(-c2cc(C(C)C)c(O)cc2O)c1-c1ccc(CN2CCOCC2)cc1 [Luminespib] (partner 0.01 µM)
In short: as §1

Q: For EBC-1, which relative viability ([1]; first compound 0.02 µM) is on record?
A: 0.422

Q: And the relative viability ([1]; first compound 0.06325 µM)?
A: 0.35

Q: What about the relative viability ([1]; first compound 0.2 µM) of the same cell line?
A: 0.336

Q: And the relative viability ([1]; first compound 0.6325 µM)?
A: 0.342

Q: What about the relative viability ([1]; first compound 2 µM) of the same cell line?
A: 0.453

Q: And the relative viability ([2]; first compound 0.02 µM)?
A: 0.475

Q: What about the relative viability ([2]; first compound 0.06325 µM) of the same cell line?
A: 0.38

Q: And the relative viability ([2]; first compound 0.2 µM)?
A: 0.421

Q: And the relative viability ([2]; first compound 0.6325 µM)?
A: 0.384

Q: And the relative viability ([2]; first compound 2 µM)?
A: 0.55

Q: What about the relative viability ([3]; first compound 0.02 µM) of the same cell line?
A: 0.543

Q: And the relative viability ([3]; first compound 0.06325 µM)?
A: 0.488

Q: What about the relative viability ([3]; first compound 0.2 µM) of the same cell line?
A: 0.571

Q: What about the relative viability ([3]; first compound 0.6325 µM) of the same cell line?
A: 0.564

Q: And the relative viability ([3]; first compound 2 µM)?
A: 0.587

Q: What about the relative viability ([4]; first compound 0.02 µM) of the same cell line?
A: 0.855

Q: What about the relative viability ([4]; first compound 0.06325 µM) of the same cell line?
A: 0.861

Q: And the relative viability ([4]; first compound 0.2 µM)?
A: 0.85

Q: What about the relative viability ([4]; first compound 0.6325 µM) of the same cell line?
A: 0.884

Q: And the relative viability ([4]; first compound 2 µM)?
A: 0.912

Q: And the relative viability ([5]; first compound 0.02 µM)?
A: 0.723

Q: And the relative viability ([5]; first compound 0.06325 µM)?
A: 0.69

Q: What about the relative viability ([5]; first compound 0.2 µM) of the same cell line?
A: 0.664

Q: What about the relative viability ([5]; first compound 0.6325 µM) of the same cell line?
A: 0.712

Q: And the relative viability ([5]; first compound 2 µM)?
A: 0.677

Q: And the relative viability ([6]; first compound 0.02 µM)?
A: 0.177

Q: And the relative viability ([6]; first compound 0.06325 µM)?
A: 0.212

Q: What about the relative viability ([6]; first compound 0.2 µM) of the same cell line?
A: 0.193

Q: And the relative viability ([6]; first compound 0.6325 µM)?
A: 0.162

Q: What about the relative viability ([6]; first compound 2 µM) of the same cell line?
A: 0.208

Q: What about the relative viability ([7]; first compound 0.02 µM) of the same cell line?
A: 0.105

Q: And the relative viability ([7]; first compound 0.06325 µM)?
A: 0.0996

Q: What about the relative viability ([7]; first compound 0.2 µM) of the same cell line?
A: 0.103

Q: What about the relative viability ([7]; first compound 0.6325 µM) of the same cell line?
A: 0.0933

Q: And the relative viability ([7]; first compound 2 µM)?
A: 0.115

Q: And the relative viability ([8]; first compound 0.02 µM)?
A: 0.951

Q: What about the relative viability ([8]; first compound 0.06325 µM) of the same cell line?
A: 0.781

Q: What about the relative viability ([8]; first compound 0.2 µM) of the same cell line?
A: 0.925

Q: What about the relative viability ([8]; first compound 0.6325 µM) of the same cell line?
A: 0.73

Q: What about the relative viability ([8]; first compound 2 µM) of the same cell line?
A: 0.708

Q: And the relative viability ([9]; first compound 0.02 µM)?
A: 0.25

Q: And the relative viability ([9]; first compound 0.06325 µM)?
A: 0.228

Q: What about the relative viability ([9]; first compound 0.2 µM) of the same cell line?
A: 0.222

Q: And the relative viability ([9]; first compound 0.6325 µM)?
A: 0.194

Q: And the relative viability ([9]; first compound 2 µM)?
A: 0.216

Q: What about the relative viability ([10]; 0.02 µM) of the same cell line?
A: 1.08

Q: And the relative viability ([10]; 0.06325 µM)?
A: 0.997

Q: What about the relative viability ([10]; 0.2 µM) of the same cell line?
A: 1.06

Q: What about the relative viability ([10]; 0.6325 µM) of the same cell line?
A: 0.975

Q: And the relative viability ([10]; 2 µM)?
A: 1.06

Q: For NCI-H1623, which relative viability ([11]; first compound 0.02 µM) is on record?
A: 0.569

Q: What about the relative viability ([11]; first compound 0.06325 µM) of the same cell line?
A: 0.574

Q: What about the relative viability ([11]; first compound 0.2 µM) of the same cell line?
A: 0.602

Q: And the relative viability ([11]; first compound 0.6325 µM)?
A: 0.617

Q: What about the relative viability ([11]; first compound 2 µM) of the same cell line?
A: 0.636

Q: And the relative viability ([12]; first compound 0.02 µM)?
A: 0.47

Q: And the relative viability ([12]; first compound 0.06325 µM)?
A: 0.527

Q: And the relative viability ([12]; first compound 0.2 µM)?
A: 0.615

Q: What about the relative viability ([12]; first compound 0.6325 µM) of the same cell line?
A: 0.536

Q: And the relative viability ([12]; first compound 2 µM)?
A: 0.537

Q: And the relative viability ([13]; first compound 0.02 µM)?
A: 0.458

Q: What about the relative viability ([13]; first compound 0.06325 µM) of the same cell line?
A: 0.427

Q: And the relative viability ([13]; first compound 0.2 µM)?
A: 0.495

Q: And the relative viability ([13]; first compound 0.6325 µM)?
A: 0.445

Q: And the relative viability ([13]; first compound 2 µM)?
A: 0.423

Q: And the relative viability ([7]; first compound 0.02 µM)?
A: 0.81

Q: What about the relative viability ([7]; first compound 0.06325 µM) of the same cell line?
A: 0.821

Q: What about the relative viability ([7]; first compound 0.2 µM) of the same cell line?
A: 0.958

Q: And the relative viability ([7]; first compound 0.6325 µM)?
A: 0.901

Q: What about the relative viability ([7]; first compound 2 µM) of the same cell line?
A: 0.893

Q: And the relative viability ([14]; first compound 0.02 µM)?
A: 0.476

Q: And the relative viability ([14]; first compound 0.06325 µM)?
A: 0.436

Q: And the relative viability ([14]; first compound 0.2 µM)?
A: 0.456

Q: What about the relative viability ([14]; first compound 0.6325 µM) of the same cell line?
A: 0.384

Q: What about the relative viability ([14]; first compound 2 µM) of the same cell line?
A: 0.384

Q: And the relative viability ([15]; first compound 0.02 µM)?
A: 0.493

Q: What about the relative viability ([15]; first compound 0.06325 µM) of the same cell line?
A: 0.605

Q: What about the relative viability ([15]; first compound 0.2 µM) of the same cell line?
A: 0.491

Q: And the relative viability ([15]; first compound 0.6325 µM)?
A: 0.551

Q: And the relative viability ([15]; first compound 2 µM)?
A: 0.516

Q: What about the relative viability ([10]; 0.02 µM) of the same cell line?
A: 1.07

Q: And the relative viability ([10]; 0.06325 µM)?
A: 0.98

Q: And the relative viability ([10]; 0.2 µM)?
A: 0.916

Q: And the relative viability ([10]; 0.6325 µM)?
A: 1

Q: And the relative viability ([10]; 2 µM)?
A: 0.892
